Experiments:
Male SD rats = assay: Effect of FARM3 on diet-induced obesity (4 weeks, obese rats); assay type: in vivo, rat; details: 4 weeks of treatment
Excerpt: The 3 month old male SD rats were given high-fat feed (described above) for 8 weeks to develop diet-induced obesity with average body weight of 425 g. The rats were randomly divided into groups (n=14 per group) and received fermented yogurt or drug under continued high-fat diet conditions: 3179 group (high fat diet with yogurt fermented by L. acidophilus KCTC 3179 strain), FARM3 group (high fat diet with yogurt fermented by FARM3 mutant), Orlistat™ (high fat diet with Xenical™ in an amount of 200 mg/kg diet).
The 3 month old male SD rats were given high-fat feed for 8 weeks to develop diet-induced obesity with average body weight of 425 g. The diet-induced obese rats were administered daily yogurt fermented with wild-type Lactobacillus 3179 (∘, high fat diet with yogurt fermented by L. acidophilus KCTC3179 strain), yogurt fermented with FARM3 ([…], high fat diet with yogurt fermented by FARM3) or Orlistat™ (Δ, high fat diet with Xenical™ 200 mg/kg diet) under continued high-fat diet condition for 4 weeks.

[1] = tested on: gastric and pancreatic lipase; details: background statement; cited from earlier work

In the case of `CCCCCCCCCCC[C@@H](C[C@@H]1OC(=O)[C@H]1CCCCCC)OC(=O)[C@H](CC(C)C)NC=O` [Orlistat™, Orlistat], the oily feces (Male SD rats) is listed as “oily feces” and the “reduction of dietary fat absorption” value [1] is listed as “approximately 30%”.
